Measured values published in patent publication US11046689B2, “Selective estrogen receptor down-regulators” (AstraZeneca AB, priority 2017, dated 2021).

These compounds were tested against Estrogen Receptor (ER) in MCF-7 cells (Homo sapiens (Human), UniProt P03372) (assay: MCF-7 ER down-regulation assay (immuno-fluorescence)). Settings: stated where not >90%.
Assay type: cell-based
Procedure: The ability of compounds to down-regulate Estrogen Receptor (ER) numbers was assessed in a cell based immuno-fluorescence assay using the MCF-7 human ductal carcinoma breast cell line. MCF-7 cells were revived directly from a cryovial (approx 5×10^6 cells) in Assay Medium (phenol red free Dulbecco's Modified Eagle's medium (DMEM); Sigma D5921) containing 2 mM L-Glutamine and 5% (v/v) Charcoal/Dextran treated foetal calf serum. Cells were syringed once using a sterile 18G×1.5 inch (1.2×40 mm) broad gauge needle and cell density was measured using a Coulter Counter (Beckman). […] Following cell seeding, plates were incubated overnight at 37° C., 5% CO2 (Liconic carousel incubator). Test data was generated using the LabCyte Echomodel 555 compound reformatter which is part of an automated workcell (Integrated Echo 2 workcell). Compound stock solutions (10 mM) of the test compounds were used to generate a 384 well compound dosing plate (Labcyte P-05525-CV1). […] 40 μL of DMSO added to wells in row P on the source plate allowed for DMSO normalisation across the dose range. To dose the control wells 40 μL of DMSO was added to row O1 and 40 μL of 100 μM fulvestrant in DMSO was added to row O3 on the compound source plate.
The Echo uses acoustic technology to perform direct microplate-to-microplate transfers of DMSO compound solutions to assay plates. The system can be programmed to transfer volumes as low as 2.5 nL in multiple increments between microplates and in so doing generates a serial dilution of compound in the assay plate which is then back-filled to normalise the DMSO concentration across the dilution range. […] The fixing method described above was carried out on the Integrated Echo 2 workcell. Immunostaining was performed using an automated AutoElisa workcell. The PBS/Proclin was aspirated from all wells and the cells permeabilised with 40 μL PBS containing 0.5% Tween™ 20 (v/v) for 1 hour at room temperature. The plates were washed three times in 250 μL of PBS/0.05% (v/v) Tween 20 with Proclin (PBST with a Biocide preservative) and then 20 μL of ERα (SP1) Rabbit monoclonal antibody (Thermofisher) 1:1000 in PBS/Tween™/3% (w/v) Bovine Serum Albumin was added. The plates were incubated overnight at 4° C. (Liconic carousel incubator) and then washed three times in 250 μL of PBS/0.05% (v/v) Tween™ 20 with Proclin (PBST). The plates were then incubated with 20 μL/well of a goat anti-rabbit IgG AlexaFluor 594 or goat anti-rabbit AlexaFluor 488 antibody (Molecular Probes) with Hoechst at 1:5000 in PBS/Tween™/3% (w/v) Bovine Serum Albumin for 1 hour at room temperature. The plates were then washed three times in 250 μL of PBS/0.05% (v/v) Tween™ 20 with Proclin (PBST with a Biocide preservative). 20 μL of PBS was added to each well and the plates covered with a black plate seal and stored at 4° C. before being read. […] The mean total intensity was normalized for cell number giving the total intensity per cell. The data was exported into a suitable software package (such as Origin) to perform curve fitting analysis.

Estrogen Receptor (ER) in MCF-7 cells, sequence (P03372 whole entry): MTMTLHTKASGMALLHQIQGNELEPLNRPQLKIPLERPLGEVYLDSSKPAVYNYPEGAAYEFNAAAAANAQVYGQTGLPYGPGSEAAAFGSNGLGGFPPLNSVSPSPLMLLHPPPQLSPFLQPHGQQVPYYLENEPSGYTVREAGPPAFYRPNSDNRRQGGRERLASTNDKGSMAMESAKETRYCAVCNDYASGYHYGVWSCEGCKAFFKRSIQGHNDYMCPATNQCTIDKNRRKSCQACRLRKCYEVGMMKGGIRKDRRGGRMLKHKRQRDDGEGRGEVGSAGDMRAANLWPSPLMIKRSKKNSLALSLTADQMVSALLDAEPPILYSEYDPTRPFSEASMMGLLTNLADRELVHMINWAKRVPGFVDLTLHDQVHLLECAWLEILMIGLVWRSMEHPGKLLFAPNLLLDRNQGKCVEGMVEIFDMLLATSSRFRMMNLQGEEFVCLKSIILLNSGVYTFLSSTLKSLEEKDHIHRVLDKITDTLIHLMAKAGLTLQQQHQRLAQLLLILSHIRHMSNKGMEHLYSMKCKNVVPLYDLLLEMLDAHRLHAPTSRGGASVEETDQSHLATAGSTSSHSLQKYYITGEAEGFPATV

Row | Structure (SMILES) | % downregulation (shown in brackets)
1 | C[C@@H]1Cc2c([nH]c3ccccc23)[C@@H](c2cccc(OCCNCCCF)n2)N1CC(F)(F)F [Example 34, 3-fluoro-N-(2-((6-((1S,3R)-3-methyl-2-(2,2,2-trifluoroethyl)-2,3,4,9-tetrahydro-1H-pyrido[3,4-b]indol-1-yl)pyridin-2-yl)oxy)ethyl)propan-1-amine] | −(41%)
2 | COc1ccc(O[C@H](C)CNCCCF)cc1[C@@H]1c2[nH]c3ccccc3c2C[C@@H](C)N1CC(F)(F)CO [Example 47, 2,2-difluoro-3-((1R,3R)-1-(5-(((R)-1-((3-fluoropropyl)amino)propan-2-yl)oxy)-2-methoxyphenyl)-3-methyl-1,3,4,9-tetrahydro-2H-pyrido[3,4-b]indol-2-yl)propan-1-ol] | 81%
3 | COc1ccc(OC[C@@H](C)NCCCF)cc1[C@@H]1c2[nH]c3ccccc3c2C[C@@H](C)N1CC(F)(F)CO [Example 50, 2,2-difluoro-3-((1R,3R)-1-(5-((R)-2-((3-fluoropropyl)amino)propoxy)-2-methoxyphenyl)-3-methyl-1,3,4,9-tetrahydro-2H-pyrido[3,4-b]indol-2-yl)propan-1-ol] | 81%
4 | COc1ccc(OCCNCCCF)cc1[C@@H]1c2[nH]c3ccccc3c2C[C@@H](C)N1C[C@H](C)C(=O)O [Example 53, (S)-3-((1R,3R)-1-(5-(2-((3-fluoropropyl)amino)ethoxy)-2-methoxy-phenyl)-3-methyl-1,3,4,9-tetrahydro-2H-pyrido[3,4-b]indol-2-yl)-2-methyl-propanoic acid] | −(40%)
5 | COCc1ccc(OCCNCCCF)cc1[C@@H]1c2[nH]c3ccccc3c2C[C@@H](C)N1CC(F)(F)F [Example 71, 3-fluoro-N-(2-(4-(methoxy-methyl)-3-((1R,3R)-3-methyl-2-(2,2,2-trifluoroethyl)-2,3,4,9-tetrahydro-1H-pyrido[3,4-b]indol-1-yl)phenoxy)ethyl)propan-1-amine] | 90%
6 | COc1ccc(OCCNCCCF)c(F)c1[C@@H]1c2[nH]c3ccccc3c2C[C@@H](C)N1CC1(F)CC1 [Example 83, 3-fluoro-N-(2-(2-fluoro-3-((1R,3R)-2-((1-fluorocyclo-propyl)methyl)-3-methyl-2,3,4,9-tetrahydro-1H-pyrido[3,4-b]indol-1-yl)-4-methoxy-phenoxy)ethyl)propan-1-amine] | 90%
7 | COc1ccc(OCCNCCCF)c(F)c1[C@@H]1c2[nH]c3ccccc3c2C[C@@H](C)N1CC1(F)COC1 [Example 84, 3-fluoro-N-(2-(2-fluoro-3-((1R,3R)-2-((3-fluorooxetan-3-yl)methyl)-3-methyl-2,3,4,9-tetrahydro-1H-pyrido[3,4-b]indol-1-yl)-4-methoxy-phenoxy)ethyl)propan-1-amine] | 83%
8 | Cc1c(OCCNCCCF)ccc(F)c1[C@@H]1c2[nH]c3ccccc3c2CC(C)(C)N1C[C@H](C)C(=O)O [Example 134, (S)-3-((R)-1 (6-fluoro-3-(2-((3-fluoro-propyl)amino)ethoxy)-2-methylphenyl)-3,3-dimethyl-1,3,4,9-tetrahydro-2H-pyrido[3,4-b]indol-2-yl)-2-methyl-propanoic acid] | 85%
9 | C[C@@H]1Cc2c([nH]c3ccccc23)[C@@H](c2c(F)ccc(OCCN(C)CCCF)c2F)N1C[C@H](C)C(=O)O [Example 144] | 88%
10 | C[C@@H]1Cc2c([nH]c3ccccc23)[C@@H](c2c(F)ccc(OCCN(C)CCCF)c2C(F)F)N1C[C@H](C)C(=O)O [Example 148, (S)-3-((1R,3R)-1-(2-(difluoro-methyl)-6-fluoro-3-(2-((3-fluoro-propyl)(methyl)amino)ethoxy)phenyl)-3-methyl-1,3,4,9-tetrahydro-2H-pyrido[3,4-b]indol-2-yl)-2-methyl-propanoic acid] | 68%
11 | Cc1c(OCCN(C)CCCF)ccc(F)c1[C@@H]1c2[nH]c3ccccc3c2C[C@@H](C(F)(F)F)N1C[C@H](C)C(=O)O [Example 149, (S)-3-((1R,3S)-1-(6-fluoro-3-(2-((3-fluoropropyl)(methyl)amino)ethoxy)-2-methylphenyl)-3-(trifluoro-methyl)-1,3,4,9-tetrahydro-2H-pyrido[3,4-b]indol-2-yl)-2-methyl-propanoic acid] | 86%
12 | C[C@@H]1Cc2c([nH]c3ccccc23)[C@@H](c2c(F)ccc(OCCN(C)CCCF)c2F)N1CC1(F)COC1 [Example 154, N-(2-(2,4-difluoro-3-((1R,3R)-2-((3-fluorooxetan-3-yl)methyl)-3-methyl-2,3,4,9-tetrahydro-1H-pyrido[3,4-b]indol-1-yl)phenoxy)ethyl)-3-fluoro-N-methyl-propan-1-amine] | 79%
